US7915270B2, “Oxazole ketones as modulators of fatty acid amide hydrolase” (The Scripps Research Institute, priority 2006, dated 2011)

Columns and labels:
[1] = Pharmacokinetic testing, intravenous bolus in rats; type: in vivo; details: rat, plasma, 2 mg/kg, male Sprague Dawley rats, 1 mg/mL in 2 mL/kg
Experimental: For each test compound, two male Sprague Dawley Rats (Charles River Laboratories; approx. 300 g body weight) were used. Animals were individually housed, provided food and water ad libitum, and were maintained on a 12 h light and dark cycle. Animals received from the vendor were surgically cannulated by the vendor with right jugular vein and left carotid artery catheters. Animals were acclimatized for at least 5 days after receipt from the vendor prior to investigations.
Animals received a bolus intravenous dose of the test compound at a dose of 1 mg/mL in a volume of 2 mL/kg via the right jugular vein catheter. The intravenous dosing solution was prepared in 55% pharmasolve, 20% cremophor, and […] physiological saline, or 100% saline adjusted to pH 8.0.
Following intravenous administration, blood was collected (sampled 0.35 mL per time point from the left carotid artery catheter) at 0.083, 0.25, 0.5, 1, 2, 4, and 6 h post-dose. Blood was collected into tubes containing EDTA and stored at 4° C. for not more than 2 h. The samples were centrifuged at 10,000 rpm in a micro-centrifuge for 5 min to obtain a plasma fraction. The plasma was stored at between −20 and −80° C. until processed for analysis. These samples were analyzed by LC-MS/MS to determine the plasma level of the compound.
Plasma level vs. time plots were created and WinNonlin (Pharsight Corp.) was used to analyze the data. A non-compartmental pharmacokinetic model was used to determine the pharmacokinetic parameters, including clearance, volume of distribution (Vd), and half-life (t1/2).

[2] = molecular target: T1, Rat FAAH (Rattus norvegicus, UniProt P97612); test: Assay Method 2: FAAH assay, 3H-anandamide hydrolysis in cell homogenate (SK-N-MC cells transfected with rat FAAH); type: biochemical; details: 3H-AEA 80 nM, rt 1 h, pH 9
T1 construct: expressed in transfected cells
T1 sequence (P97612 1-579): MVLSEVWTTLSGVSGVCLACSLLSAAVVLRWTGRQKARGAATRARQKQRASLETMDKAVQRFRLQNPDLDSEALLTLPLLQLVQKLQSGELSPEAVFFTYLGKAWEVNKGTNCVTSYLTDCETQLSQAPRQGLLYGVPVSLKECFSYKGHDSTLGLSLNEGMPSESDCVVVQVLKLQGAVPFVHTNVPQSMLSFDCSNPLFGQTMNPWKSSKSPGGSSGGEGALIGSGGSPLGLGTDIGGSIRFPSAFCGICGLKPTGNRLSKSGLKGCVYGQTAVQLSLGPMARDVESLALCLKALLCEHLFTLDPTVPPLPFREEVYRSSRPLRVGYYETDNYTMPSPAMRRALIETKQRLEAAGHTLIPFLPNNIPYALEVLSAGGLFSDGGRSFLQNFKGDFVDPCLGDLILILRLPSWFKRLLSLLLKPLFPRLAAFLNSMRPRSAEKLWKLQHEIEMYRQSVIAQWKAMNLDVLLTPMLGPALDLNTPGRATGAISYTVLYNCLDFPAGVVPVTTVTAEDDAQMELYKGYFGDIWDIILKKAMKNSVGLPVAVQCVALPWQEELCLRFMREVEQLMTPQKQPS

`O=C(O)c1cccc(-c2cnc(C(=O)CCCCCCc3ccccc3)o2)n1` [Example 37, 6-(2-(7-Phenylheptanoyl)oxazol-5-yl)picolinic acid] gave a Vd [1] of 0.86 L/kg, a clearance [1] of 7.67 mL/min/kg and a half-life [1] of 74.4 min. The IC50 [2] was 11 nM.

`O=C(O)c1ccc(-c2cnc(C(=O)CCCCCCc3ccccc3)o2)nc1` [Example 38, 6-(2-(7-Phenylheptanoyl)oxazol-5-yl)nicotinic acid] gave a Vd [1] of 1.4 L/kg, a clearance [1] of 112 mL/min/kg and a half-life [1] of 9 min. It also gave an IC50 [2] of 2 nM.
